The results in this text go back to ChEMBL document CHEMBL1201862, “PubChem BioAssay data set” (2004).

One assay has as its target T1, Protein skinhead-1 (Caenorhabditis elegans, UniProt P34707).
T1 sequence (P34707 whole entry): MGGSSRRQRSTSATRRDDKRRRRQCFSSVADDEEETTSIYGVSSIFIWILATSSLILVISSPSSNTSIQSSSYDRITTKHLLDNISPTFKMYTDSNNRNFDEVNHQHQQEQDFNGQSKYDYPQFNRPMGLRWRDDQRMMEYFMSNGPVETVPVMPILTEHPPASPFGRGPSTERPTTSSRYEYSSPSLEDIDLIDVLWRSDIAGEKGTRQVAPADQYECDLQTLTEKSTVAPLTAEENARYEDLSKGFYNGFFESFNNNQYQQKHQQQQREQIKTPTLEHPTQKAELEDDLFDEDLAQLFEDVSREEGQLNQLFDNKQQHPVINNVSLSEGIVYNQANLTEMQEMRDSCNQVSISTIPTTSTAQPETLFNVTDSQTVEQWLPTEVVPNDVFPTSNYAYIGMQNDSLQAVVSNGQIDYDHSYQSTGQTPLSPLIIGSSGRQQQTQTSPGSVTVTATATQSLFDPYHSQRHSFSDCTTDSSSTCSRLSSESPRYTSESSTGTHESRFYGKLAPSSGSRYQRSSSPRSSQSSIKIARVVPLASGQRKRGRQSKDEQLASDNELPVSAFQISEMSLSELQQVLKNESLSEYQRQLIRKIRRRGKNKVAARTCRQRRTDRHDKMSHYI
In kind it is functional.

Assay [1] addresses T2, Histone-lysine N-methyltransferase NSD2 (Homo sapiens, UniProt O96028).
T2 sequence (O96028 whole entry): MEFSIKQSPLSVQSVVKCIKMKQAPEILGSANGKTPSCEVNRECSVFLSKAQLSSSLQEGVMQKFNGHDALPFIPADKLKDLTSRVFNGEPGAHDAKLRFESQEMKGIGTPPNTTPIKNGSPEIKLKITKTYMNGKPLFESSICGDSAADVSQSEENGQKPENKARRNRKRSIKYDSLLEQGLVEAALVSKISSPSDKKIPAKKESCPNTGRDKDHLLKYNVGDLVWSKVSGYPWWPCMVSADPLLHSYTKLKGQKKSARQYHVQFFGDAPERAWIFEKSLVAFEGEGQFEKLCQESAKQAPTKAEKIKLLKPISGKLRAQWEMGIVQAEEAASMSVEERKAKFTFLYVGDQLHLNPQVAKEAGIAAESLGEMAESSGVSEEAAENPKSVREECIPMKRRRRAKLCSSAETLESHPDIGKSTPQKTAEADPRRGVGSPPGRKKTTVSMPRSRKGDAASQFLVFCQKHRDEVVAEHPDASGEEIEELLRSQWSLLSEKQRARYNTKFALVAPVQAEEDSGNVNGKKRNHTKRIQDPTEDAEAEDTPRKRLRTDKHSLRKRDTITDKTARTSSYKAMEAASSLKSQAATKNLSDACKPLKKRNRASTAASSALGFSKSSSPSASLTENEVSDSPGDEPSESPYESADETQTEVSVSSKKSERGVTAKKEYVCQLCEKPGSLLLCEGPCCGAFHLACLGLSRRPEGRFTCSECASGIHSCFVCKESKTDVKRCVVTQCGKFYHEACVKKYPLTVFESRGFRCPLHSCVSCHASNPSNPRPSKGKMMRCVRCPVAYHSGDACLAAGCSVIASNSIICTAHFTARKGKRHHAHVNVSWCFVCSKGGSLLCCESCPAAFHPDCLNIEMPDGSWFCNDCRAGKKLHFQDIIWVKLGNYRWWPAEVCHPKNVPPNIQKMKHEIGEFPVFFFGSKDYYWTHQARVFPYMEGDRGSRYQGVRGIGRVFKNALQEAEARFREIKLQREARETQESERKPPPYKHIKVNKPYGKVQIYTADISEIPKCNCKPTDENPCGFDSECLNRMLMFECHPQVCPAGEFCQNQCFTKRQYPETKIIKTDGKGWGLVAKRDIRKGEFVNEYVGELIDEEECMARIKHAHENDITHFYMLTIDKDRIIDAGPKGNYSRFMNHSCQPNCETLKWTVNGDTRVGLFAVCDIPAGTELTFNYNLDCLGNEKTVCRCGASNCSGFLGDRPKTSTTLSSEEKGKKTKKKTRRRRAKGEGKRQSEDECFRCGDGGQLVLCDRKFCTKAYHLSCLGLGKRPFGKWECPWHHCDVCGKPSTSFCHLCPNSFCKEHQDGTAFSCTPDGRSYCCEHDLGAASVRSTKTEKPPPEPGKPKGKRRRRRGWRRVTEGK
Format: biochemical.

The target in the next assay is T3, fMet-Leu-Phe receptor (Homo sapiens, UniProt P21462).
T3 sequence (P21462 whole entry): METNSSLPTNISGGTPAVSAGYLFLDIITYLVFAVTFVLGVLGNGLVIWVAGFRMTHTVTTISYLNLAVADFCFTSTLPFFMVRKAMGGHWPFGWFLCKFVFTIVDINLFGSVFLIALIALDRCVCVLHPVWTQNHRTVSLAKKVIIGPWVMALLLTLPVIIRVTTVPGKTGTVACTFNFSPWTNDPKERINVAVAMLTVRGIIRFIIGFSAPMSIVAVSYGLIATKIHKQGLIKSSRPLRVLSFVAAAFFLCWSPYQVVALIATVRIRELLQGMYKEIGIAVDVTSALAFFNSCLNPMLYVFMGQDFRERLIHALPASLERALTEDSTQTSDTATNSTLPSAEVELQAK
Kind of assay: FPR ligands, dose response (AID 519). Format: functional.

The target in another assay is Cytochrome P450 3A4 (Homo sapiens, UniProt P08684).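 Note: CYP3A4 tested as one member of a cytochrome P450 panel screen.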
Assay [2] addresses T4, DNA repair and recombination protein RAD54-like (Homo sapiens, UniProt Q92698).
T4 sequence (Q92698 whole entry): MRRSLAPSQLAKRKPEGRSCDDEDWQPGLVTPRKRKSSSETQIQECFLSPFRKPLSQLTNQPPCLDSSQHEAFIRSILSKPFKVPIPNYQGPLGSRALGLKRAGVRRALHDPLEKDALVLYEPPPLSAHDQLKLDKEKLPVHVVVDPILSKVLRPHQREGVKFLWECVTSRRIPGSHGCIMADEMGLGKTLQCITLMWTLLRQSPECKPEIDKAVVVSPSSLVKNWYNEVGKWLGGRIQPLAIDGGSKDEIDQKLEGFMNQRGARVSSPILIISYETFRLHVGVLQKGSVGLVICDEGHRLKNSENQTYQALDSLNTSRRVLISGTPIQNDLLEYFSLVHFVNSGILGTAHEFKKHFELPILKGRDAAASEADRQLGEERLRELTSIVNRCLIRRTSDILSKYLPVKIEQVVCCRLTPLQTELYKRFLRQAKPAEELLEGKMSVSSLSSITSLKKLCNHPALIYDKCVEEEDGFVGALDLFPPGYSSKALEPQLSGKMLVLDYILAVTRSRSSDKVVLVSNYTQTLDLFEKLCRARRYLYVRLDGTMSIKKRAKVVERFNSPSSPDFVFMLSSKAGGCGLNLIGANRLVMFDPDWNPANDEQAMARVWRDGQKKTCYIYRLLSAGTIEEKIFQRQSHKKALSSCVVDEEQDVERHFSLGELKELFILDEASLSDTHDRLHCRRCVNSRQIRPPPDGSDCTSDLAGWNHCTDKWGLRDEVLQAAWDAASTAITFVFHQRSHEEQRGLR
Kind of assay: inhibitors of human RAD54 branch migration, confirmation, biochemical, fluorescence, cherry-picked samples, dose series (AID 651657). Format: functional.

Another assay concerns the target T5, Aminopeptidase N (Plasmodium falciparum FcB1/Columbia, UniProt O96935).
T5 sequence (O96935 whole entry): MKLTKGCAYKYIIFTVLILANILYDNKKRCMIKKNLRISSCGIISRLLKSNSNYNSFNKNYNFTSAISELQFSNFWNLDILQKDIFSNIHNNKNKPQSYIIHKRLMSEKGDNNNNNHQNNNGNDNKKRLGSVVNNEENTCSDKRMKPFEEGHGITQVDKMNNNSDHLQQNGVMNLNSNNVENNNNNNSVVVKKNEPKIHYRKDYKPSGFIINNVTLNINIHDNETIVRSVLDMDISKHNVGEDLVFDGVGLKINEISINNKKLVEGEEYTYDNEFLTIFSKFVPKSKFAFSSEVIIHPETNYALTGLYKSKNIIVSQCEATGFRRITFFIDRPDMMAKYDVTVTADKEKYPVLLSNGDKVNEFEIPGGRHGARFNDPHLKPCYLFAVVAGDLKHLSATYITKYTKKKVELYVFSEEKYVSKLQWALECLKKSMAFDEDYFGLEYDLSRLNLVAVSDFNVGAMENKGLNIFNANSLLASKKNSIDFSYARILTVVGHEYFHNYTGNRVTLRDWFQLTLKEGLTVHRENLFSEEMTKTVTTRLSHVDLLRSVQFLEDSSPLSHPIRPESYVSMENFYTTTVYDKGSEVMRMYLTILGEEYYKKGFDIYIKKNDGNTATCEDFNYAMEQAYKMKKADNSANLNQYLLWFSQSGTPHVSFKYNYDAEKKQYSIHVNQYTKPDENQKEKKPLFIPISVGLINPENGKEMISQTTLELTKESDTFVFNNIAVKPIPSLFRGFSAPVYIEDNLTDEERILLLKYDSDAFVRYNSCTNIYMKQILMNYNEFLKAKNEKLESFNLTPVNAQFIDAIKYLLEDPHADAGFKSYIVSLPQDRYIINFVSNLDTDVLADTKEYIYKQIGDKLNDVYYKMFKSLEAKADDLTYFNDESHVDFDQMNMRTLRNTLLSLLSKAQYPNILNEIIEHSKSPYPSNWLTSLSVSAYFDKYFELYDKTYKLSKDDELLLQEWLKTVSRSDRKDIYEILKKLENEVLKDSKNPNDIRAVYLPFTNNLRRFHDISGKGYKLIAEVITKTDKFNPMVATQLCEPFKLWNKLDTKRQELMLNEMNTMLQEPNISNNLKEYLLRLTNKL
Kind of assay: P. falciparum M1AAP inhibitors, biochemical, fluorogenic H-Leu-NHMec substrate, 1536-well (AID 1445). Further details: species or system Plasmodium falciparum 3D7, 3D7.

For another assay, the target named is T6, Cytochrome P450 1A2 (Homo sapiens, UniProt P05177).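 Note: PubChem cytochrome P450 panel assay, CYP1A2 panel member.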
T6 sequence (P05177 whole entry): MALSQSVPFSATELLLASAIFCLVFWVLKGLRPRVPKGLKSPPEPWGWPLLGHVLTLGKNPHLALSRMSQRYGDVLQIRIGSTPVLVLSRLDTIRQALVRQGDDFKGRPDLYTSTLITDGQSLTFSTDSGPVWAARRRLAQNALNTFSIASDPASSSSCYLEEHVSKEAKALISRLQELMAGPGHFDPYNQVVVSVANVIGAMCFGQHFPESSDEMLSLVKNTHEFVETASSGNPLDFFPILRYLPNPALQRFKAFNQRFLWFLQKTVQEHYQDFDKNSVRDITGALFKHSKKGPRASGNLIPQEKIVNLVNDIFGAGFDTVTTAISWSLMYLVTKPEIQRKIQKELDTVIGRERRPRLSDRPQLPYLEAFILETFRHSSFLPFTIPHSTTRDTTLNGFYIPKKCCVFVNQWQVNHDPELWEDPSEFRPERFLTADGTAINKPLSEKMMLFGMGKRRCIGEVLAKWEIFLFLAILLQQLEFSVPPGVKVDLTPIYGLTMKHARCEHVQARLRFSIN

In the next assay the target is Cytochrome P450 2C19 (Homo sapiens, UniProt P33261). The assay can be described thus: Cytochrome panel assay with activity outcomes. Panel member name: p450-cyp2c19 Compounds with AC50 equal or less than 10 uM are considered active. Format: functional. The following applies: read-out: AC50.
For the next assay, the target named is Cytochrome P450 2D6 (Homo sapiens, UniProt P10635).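 Note: CYP2D6 member of a cytochrome P450 panel assay.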

“And” between values parts separate entries of the source, which are not always exact repeats. Equal values may be shown once. The source made the active and inactive calls. A value given as a limit tells only on which side of the number the result lay.

Cytochrome P450 3A4, sequence (P08684 whole entry): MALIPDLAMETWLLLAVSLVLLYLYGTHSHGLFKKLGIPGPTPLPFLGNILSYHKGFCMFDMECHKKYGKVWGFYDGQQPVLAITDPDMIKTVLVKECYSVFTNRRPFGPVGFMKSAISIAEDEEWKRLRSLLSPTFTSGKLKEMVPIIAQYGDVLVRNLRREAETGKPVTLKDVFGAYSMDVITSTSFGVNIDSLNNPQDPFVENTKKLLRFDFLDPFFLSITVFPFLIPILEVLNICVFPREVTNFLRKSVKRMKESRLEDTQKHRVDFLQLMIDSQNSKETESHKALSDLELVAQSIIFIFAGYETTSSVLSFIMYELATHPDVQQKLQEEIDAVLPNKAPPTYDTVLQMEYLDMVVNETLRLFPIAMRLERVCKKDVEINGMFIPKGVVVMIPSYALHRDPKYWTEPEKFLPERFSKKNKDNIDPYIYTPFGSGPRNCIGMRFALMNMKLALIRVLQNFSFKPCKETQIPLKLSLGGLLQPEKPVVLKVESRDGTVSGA
Cytochrome P450 2D6, sequence (P10635 whole entry): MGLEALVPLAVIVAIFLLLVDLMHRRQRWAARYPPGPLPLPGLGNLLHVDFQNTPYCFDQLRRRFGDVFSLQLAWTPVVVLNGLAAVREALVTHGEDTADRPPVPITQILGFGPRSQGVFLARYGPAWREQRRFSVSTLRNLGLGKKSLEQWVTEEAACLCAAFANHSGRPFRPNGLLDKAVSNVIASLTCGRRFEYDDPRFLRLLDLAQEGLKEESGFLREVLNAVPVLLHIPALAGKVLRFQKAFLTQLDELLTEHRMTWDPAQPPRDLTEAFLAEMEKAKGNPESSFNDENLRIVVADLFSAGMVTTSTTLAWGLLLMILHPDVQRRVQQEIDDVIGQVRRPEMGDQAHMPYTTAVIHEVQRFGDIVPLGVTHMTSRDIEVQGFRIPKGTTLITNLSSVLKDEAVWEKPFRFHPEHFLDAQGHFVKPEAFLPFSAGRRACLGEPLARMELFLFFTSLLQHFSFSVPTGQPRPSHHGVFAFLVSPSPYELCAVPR
Cytochrome P450 2C19, sequence (P33261 whole entry): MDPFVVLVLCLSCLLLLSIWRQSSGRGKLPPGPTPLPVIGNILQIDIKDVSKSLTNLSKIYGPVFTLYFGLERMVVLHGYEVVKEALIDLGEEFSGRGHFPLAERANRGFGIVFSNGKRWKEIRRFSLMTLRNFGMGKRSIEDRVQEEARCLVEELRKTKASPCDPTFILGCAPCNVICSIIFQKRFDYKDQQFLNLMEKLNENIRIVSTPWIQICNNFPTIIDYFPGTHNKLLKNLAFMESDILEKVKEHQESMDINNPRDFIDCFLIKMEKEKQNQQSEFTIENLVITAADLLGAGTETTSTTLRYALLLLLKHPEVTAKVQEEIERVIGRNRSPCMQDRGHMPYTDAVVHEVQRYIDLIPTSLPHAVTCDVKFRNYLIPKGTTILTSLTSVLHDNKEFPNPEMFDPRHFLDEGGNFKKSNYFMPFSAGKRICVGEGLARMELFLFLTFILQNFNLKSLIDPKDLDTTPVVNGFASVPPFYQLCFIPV

One may read the IC50 as the concentration that gives 50% inhibition. Take `COC(=O)c1ccc(-c2ccc(Cl)cc2)nc1C`: the IC50 on Protein skinhead-1 is 82.5 µM (inactive).
One may read the AC50 as the concentration giving half of the maximal activity seen. For `CNCCC1Sc2ccccc2Oc2ccccc21` (stereo not given), the AC50 in [1] was > 20 µM (inactive).
For `Clc1ccc2oc(SCc3cccnc3)nc2c1`, the concentration for half-maximal inhibition (IC50) on Protein skinhead-1 is 33.5 µM (active).
Usually Ki stands for the dissociation constant of the complex between target and ligand, obtained from inhibition or displacement. Take `CCSc1nnc(NC(=O)CSc2nnc(Cc3cccn3C)n2CCc2ccccc2)s1`: at fMet-Leu-Phe receptor, the Ki is > 66.7 µM (inactive).
With `CCOC(=O)CCn1nc(-c2ccc(Cl)cc2)cc1N`, at fMet-Leu-Phe receptor, the Ki was > 66.7 µM (inactive).
Consider `O=C(Nc1ccc2nc(-c3ccccc3)oc2c1)c1ccco1`, for which the IC50 on Protein skinhead-1 was > 100 µM (inactive).
As for `CCCN(CCC)CCCNC(=O)c1cc2cc3ccc(OC)cc3nc2o1`, the AC50 was 15.8 µM (inconclusive) at Cytochrome P450 3A4, 31.6 µM (active) in [2], 20 µM (inconclusive) on Cytochrome P450 1A2 and 20 µM (inconclusive) at Cytochrome P450 2C19. Moreover, the IC50 on Aminopeptidase N was 45.9 µM (active).
For the compound `O=C(C1=C(O)C(=O)N(CC2CCCO2)C1c1cccnc1)c1ccco1` (stereo not given), the Ki at fMet-Leu-Phe receptor is 54.8 µM (inactive).
`CCOc1cc(C(=O)NCc2nnc(SCC(=O)OC)n2C)cc(OCC)c1OCC`: at fMet-Leu-Phe receptor, the Ki is > 66.7 µM (inactive).
As to `Cc1nn(C(=O)CCC(=O)NCc2cccc(F)c2)c2ccccc12`, on Protein skinhead-1, the IC50 is > 100 µM (inactive).
As to `CCNCCC(=O)N1c2ccccc2Sc2ccc(C(F)(F)F)cc21`, the AC50 in assay [1] is > 20 µM (inactive).
Regarding `CCc1nn2c(=O)cc(CSc3nc4sc5c(c4c(=O)n3C)CCCC5)nc2s1`, the Ki at fMet-Leu-Phe receptor was > 66.7 µM (inactive).
Take `O=C(COc1ccccc1)N/N=C/c1sc(=O)n(Cc2cccc(C(=O)O)c2)c1Cl`: the AC50 in assay [1] is > 20 µM (inactive).
For `Clc1ccccc1-c1nc(-c2ccncc2)no1` [PIFEXOLE], the figures for the AC50 on Cytochrome P450 3A4 and on Cytochrome P450 2D6 were 2 µM (inconclusive) and 3.16 µM (inconclusive), respectively. For the same compound, the IC50 on Protein skinhead-1 is 11.2 µM (active) and 18.8 µM (active).
